Measurements: article PMC8043168, “Tribolium castaneum defensin 1 kills Moraxella catarrhalisin an in vitro infection model but does not harm commensal bacteria” (Virulence, 2021)
Bridge positions count the residues as written; N and C are the ends.

Assays:
M. catarrhalis [1] = assay type: cell-based, Moraxella catarrhalis
Method: (§1) Colonies of M. catarrhalis were grown on sheep blood agar plates for 12 h at 37°C and 5% CO2 before transfer to brain heart infusion (BHI) medium (Carl Roth, Karlsruhe, Germany) at an initial concentration of 1.6 × 10^7 cells/ml (OD600 = 0.08) as determined using an Ultraspec 10 cell densitometer (Amersham BioSciences, Little Chalfont, UK). Bacteria were cultivated in a shaking incubator at 37°C until the concentration reached 1.2 × 10^8 cells/ml (OD600 = 0.6) and then diluted to 2 × 10^6 cells/ml (OD600 = 0.011). To establish the optimal concentration ranges for AMP activity, defensin 1 was prepared as a two-fold dilution series from 12.5 µM to 1.56 µM and was added to the bacterial cultures, which were incubated as above for a further 16 h. Untreated cultures were used as controls. The OD600 was measured automatically at 30-min intervals using an Infinite M200 Pro plate reader (Tecan Life Sciences, Männedorf, Switzerland). […] They were cultivated for a further 15 h at 37°C and 5% CO2 in serial dilution before manual counting of the colonies on each plate.
Table S1. Detailed characterization of tested AMPs. M.c. were grown to an Optical Density (OD) 600nm of 0.6 in Brain Heart Infusion (BHI) Medium.
Upon dilution to OD600nm= 0.01, M.c. were incubated with declining amounts of indicated AMPs (25 μM to 0.048 μM at halving intervals) at 37°C with 5% CO2.
OD600nm was measured at 30 min intervals to establish the minimal inhibitory concentration (MIC). pI = isoelectric point, MW = molecular weight in kiloDalton.
MIC AMP name AMP class Organism Amino Acid Sequence pIMWPurity Retention time [min] modification
0.195 µM Cecropin A α-helical Hyalophora cecropia […] 10.75 4.00 91.06 7.30 n-term. amidation
0.39 µM Sarcotoxin IA α-helical Sarcophaga peregrina […] 11.07 4.16 91.37 9.37 n-term. amidation
~ 25µM Stomoxyn α-helical Stomoxys calcitrans […] 11.26 4.40 95.34 10.08 n-term. amidation
~ 25µM Spinigerin linear Pseudacanthotermes spiniger […] 11.07 3.00 96.23 12.45 none
>25µM Apidaecin Ia proline-rich Apis mellifera GNNRPVYIPQPRPPHPRI 11.71 2.11 92.98 16.91 none
>25µM Drosocin proline-rich Drosophila melanogaster GKPRPYSPRPTSHPRPIRV 12.01 2.20 92.86 11.65 none
>25µM Pyrrhocoricin proline-rich Pyrrhocoris apterus […] 10.27 2.34 93.17 11.38 none
>25 µM Metalnikowin-1 proline-rich Palomena prasina […] 9.98 1.84 92.85 13.36 none
>25 µM Metalnikowin-2A proline-rich Palomena prasina […] 9.98 1.84 92.39 10.85 none
>25 µM Metchnikowin-1 proline-rich Drosophila melanogaster […] 10.74 3.03 99.06 11.50 none
>25 µM Metchnikowin-2 proline-rich Drolophila melanogaster […] 11.54 3.04 97.16 11.46 none
12.5 µM Defensin 1 disulfide stabilized Tribolium castaneum […] 9.7 4.83 90.53 18.41 none
~ 25 µM Cecropin-like α-helical Lucilia sericata[…] 10.35 6.66 90.28 12.01 none
0.195 µM Cecropin α-helical Galleria mellonella […] 10.21 4.21 93.61 12.33 n-term. amidation
0.37 µM Cecropin α-helical Lucilia sericata […] 10.56 4.26 94.31 10.83 n-term. amidation
12.5 µM Stomoxyn α-helical Lucilia sericata […] 10.73 4.38 90.37 13.35n-term. amidation n-term.
1.56 µM Cecropin(Sarcotoxin) α-helical Eristalis tenax […] 10.56 4.14 90.80 9.76 none

macrophages = conditions: cited from earlier work
Text: Defensin 1 limited the expressio ...

M. catarrhalis [2] = assay: AMP inhibitory testing without macrophages, dilution and plating (Figure S1); assay type: cell-based, Moraxella catarrhalis
Method: as §1

E. coli = assay: Growth kinetics of commensal E. coli; assay type: cell-based, Escherichia coli; conditions: liquid LB medium, 37°C, OD600 every 30 min; defensin 1 12.5 µM, sarcotoxin 1 C 0.39 µM
Method: (§2) For the analysis of commensal bacteria, E. faecalis was grown on Columbia agar plates or in liquid BHI medium, and E. coli was grown on McConkey agar or in liquid LB medium. After overnight culture on agar plates at 37°C and 5% CO2, both species were transferred to liquid medium at an initial OD600 of 0.005. The cultures were maintained in a shaking incubator at 37°C, and the OD600 was measured automatically at 30-min intervals as above.

BDMs activated by LPS = assay: Sterile activation of BDMs by LPS; assay type: cell-based, human; conditions: defensin 1 added 1 h after LPS
Method: The presence of cytokines in the BDM supernatant after infection and treatment with 12.5 µM defensin 1 was assessed using the MAGPIX Multiplex ELISA (Luminex, Austin, TX, USA). BDM supernatants were prepared as recommended for the MAGPIX system. The cytokine panel comprised MIP1-α, MCP1, IL-1β, IL-6, IL-8, IL-10, IL-12p70, IL-23, LAP and TNF-α.
Statistical interpretation of the multiplex ELISA data required the incorporation of data points outside the detection range and adjustments for the effect of parallel technical measurements from the same biological samples. We therefore used the Hodges and Lehmann nonparametric aligned ranks test to compare cytokine secretion by treatment time within treatment groups and between the following control and treatment groups: […]

E. faecalis = assay: Growth kinetics of commensal E. faecalis; assay type: cell-based, Enterococcus faecalis; conditions: liquid BHI medium, 37°C, OD600 every 30 min; defensin 1 12.5 µM, sarcotoxin 1 C 0.39 µM
Method: as §2

[3] = up to a concentration of 100 µM; cited from earlier work

In the case of “H-VTCDLLSAEAKGVKVNHAACAAHCLLKRKRGGYCNKRRICVCRN-OH (disulfide 3-34, 20-40, 24-42 (inferred)) [Defensin 1]”, the “MIC (minimal inhibitory concentration)” value (M. catarrhalis [1]; 12 h) is given as 12.5 µM, the “concentration that completely abolished/inhibited the growth of M. catarrhalis” value (M. catarrhalis [1]; growth curve in BHI, two-fold dilution series, 37°C, 16 h, OD600 every 30 min) is given as 12.5 µM and the toxicity toward macrophages (macrophages) is given as “nontoxic”. The “effect on bacterial growth upon dilution of the AMP by plating” value (M. catarrhalis [2]; defensin 1 12.5 µM or sarcotoxin 1 C 0.39 µM in BHI, diluted in PBS with 0.15% gelatin, plated on sheep blood agar, 15 h, Figure S1) was “efficiently killed the bacteria”, the “bactericidal or bacteriostatic capacity” value (M. catarrhalis [2]; growth of M. catarrhalis after dilution of the AMP) was “bactericidal” and the “effect on growth of E. coli” value (E. coli) was “minor growth delay”. For the same substance, the “sterile activation of BDMs by LPS in presence of peptide” value (BDMs activated by LPS) was “not significantly affected”, the “effect on growth of E. faecalis” value (E. faecalis) was “minor growth delay” and the hemolytic activity [3] was “minimal hemolytic activity”.
